These results are taken from publication PMC8119466, “A screen of FDA-approved drugs identifies inhibitors of protein tyrosine phosphatase 4A3 (PTP4A3 or PRL-3)” (Scientific Reports, 2021).

Format in all cases: biochemical
Holding throughout (details): FDA-approved drug screen

In one assay the target is T1, recombinant PRL-3 (Homo sapiens, UniProt O75365).
T1 construct: 6xHis (N, cleaved yes); made in house; host or cells: E. coli One Shot BL21 Star
The experiment in a line: In vitro phosphatase assay (DiFMUP hydrolysis), PRL-3. Also: test concentration or dose not given here.

The next assay addresses T2, recombinant PRL-1 (Homo sapiens, UniProt Q93096).
T2 construct: 6xHis (N, cleaved yes); made in house; host or cells: E. coli One Shot BL21 Star
T2 sequence (Q93096 1-173): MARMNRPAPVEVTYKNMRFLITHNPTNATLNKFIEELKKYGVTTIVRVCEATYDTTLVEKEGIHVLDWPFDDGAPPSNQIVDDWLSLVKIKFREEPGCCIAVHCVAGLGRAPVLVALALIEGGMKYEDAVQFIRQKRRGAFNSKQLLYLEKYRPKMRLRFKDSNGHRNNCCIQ
The experiment in a line: In vitro phosphatase assay (DiFMUP hydrolysis), PRL-1. Also: test concentration or dose not given here.

A further assay concerns the target T3, recombinant PRL-2 (Homo sapiens, UniProt Q12974).
T3 construct: 6xHis (N, cleaved yes); made in house; host or cells: E. coli One Shot BL21 Star
T3 sequence (Q12974 1-167): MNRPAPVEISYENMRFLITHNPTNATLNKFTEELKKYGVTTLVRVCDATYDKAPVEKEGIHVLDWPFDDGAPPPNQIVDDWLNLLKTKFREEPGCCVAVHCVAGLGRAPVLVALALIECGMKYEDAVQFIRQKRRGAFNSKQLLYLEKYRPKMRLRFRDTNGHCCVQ
The experiment in a line: In vitro phosphatase assay (DiFMUP hydrolysis), PRL-2.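 Also: PRL-2 activity read as DiFMUP hydrolysis after 20 min at room temperature with drug, enzyme first pre-reduced at 4 °C for 20 min.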

Structures can show the parent of a compound that is named as a salt.

T1 sequence (O75365 whole entry): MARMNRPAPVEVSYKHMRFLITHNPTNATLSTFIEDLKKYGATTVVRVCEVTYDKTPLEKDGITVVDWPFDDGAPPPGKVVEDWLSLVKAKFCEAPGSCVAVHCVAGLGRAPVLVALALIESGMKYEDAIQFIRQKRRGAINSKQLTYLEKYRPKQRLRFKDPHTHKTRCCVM

On to `CO[C@@]1(NC(=O)C(C(=O)O)c2ccc(O)cc2)C(=O)N2C(C(=O)O)=C(CSc3nnnn3C)CO[C@@H]21` (stereo partly drawn) [Moxalactam Disodium], for which, on recombinant PRL-3 (compared to DMSO), the “% Phosphatase Activity (compared to DMSO) PRL-3” value is 89%. Moreover, the “% Phosphatase Activity (compared to DMSO) PRL-1” value at recombinant PRL-1 (compared to DMSO) is given as 88%. The “% Phosphatase Activity (compared to DMSO) PRL-2” value on recombinant PRL-2 (compared to DMSO) stood at 97%.

Regarding `Cc1c(OCC(F)(F)F)ccnc1C[S@@+]([O-])c1nc2ccccc2[nH]1` [Dexlansoprazole], at recombinant PRL-3 (compared to DMSO), the “% Phosphatase Activity (compared to DMSO) PRL-3” value was 93%. Further, the “% Phosphatase Activity (compared to DMSO) PRL-1” value on recombinant PRL-1 (compared to DMSO) was 95%. The “% Phosphatase Activity (compared to DMSO) PRL-2” value on recombinant PRL-2 (compared to DMSO) is recorded as 100%.

With `CN1[C@@H]2CC[C@H]1C[C@@H](OC(c1ccccc1)c1ccccc1)C2` [Benztropine mesylate], on recombinant PRL-3 (compared to DMSO), the “% Phosphatase Activity (compared to DMSO) PRL-3” value was 89%. Besides, the “% Phosphatase Activity (compared to DMSO) PRL-1” value at recombinant PRL-1 (compared to DMSO) is listed as 94%. The “% Phosphatase Activity (compared to DMSO) PRL-2” value at recombinant PRL-2 (compared to DMSO) was 106%.

With `CCCCC1C(=O)N(c2ccccc2)N(c2ccccc2)C1=O` [Phenylbutazone], the “% Phosphatase Activity (compared to DMSO) PRL-3” value on recombinant PRL-3 (compared to DMSO) worked out at 81%. At recombinant PRL-1 (compared to DMSO), the “% Phosphatase Activity (compared to DMSO) PRL-1” value came out at 104%. The “% Phosphatase Activity (compared to DMSO) PRL-2” value on recombinant PRL-2 (compared to DMSO) was determined as 84%.

Take `CO[C@H]1C(=O)[C@]2(C)[C@@H](OC)C[C@H]3OC[C@@]3(OC(C)=O)[C@H]2[C@H](OC(=O)c2ccccc2)[C@]2(O)C[C@H](OC(=O)[C@H](O)[C@@H](NC(=O)OC(C)(C)C)c3ccccc3)C(C)=C1C2(C)C` [Cabazitaxel]: on recombinant PRL-3 (compared to DMSO), the “% Phosphatase Activity (compared to DMSO) PRL-3” value came to 89%. For the same compound, on recombinant PRL-1 (compared to DMSO), the “% Phosphatase Activity (compared to DMSO) PRL-1” value is 88%. Moreover, the “% Phosphatase Activity (compared to DMSO) PRL-2” value on recombinant PRL-2 (compared to DMSO) amounted to 107%.

For the compound `O=P1(NCCCl)OCCCN1CCCl` (stereo not drawn) [Ifosfamide], the “% Phosphatase Activity (compared to DMSO) PRL-3” value on recombinant PRL-3 (compared to DMSO) came to 78%. On recombinant PRL-1 (compared to DMSO), the “% Phosphatase Activity (compared to DMSO) PRL-1” value came out at 100%. Further, the “% Phosphatase Activity (compared to DMSO) PRL-2” value at recombinant PRL-2 (compared to DMSO) was determined as 99%.

Take Eptifibatide Acetate: the “% Phosphatase Activity (compared to DMSO) PRL-3” value at recombinant PRL-3 (compared to DMSO) stood at 91%. Besides, the “% Phosphatase Activity (compared to DMSO) PRL-1” value on recombinant PRL-1 (compared to DMSO) came out at 88%. At recombinant PRL-2 (compared to DMSO), the “% Phosphatase Activity (compared to DMSO) PRL-2” value was found to be 82%.

On to `Cc1nc(C)c(Cl)c(O)c1Cl` [Clopidol], for which the “% Phosphatase Activity (compared to DMSO) PRL-3” value on recombinant PRL-3 (compared to DMSO) turned out to be 80%. Further, the “% Phosphatase Activity (compared to DMSO) PRL-1” value on recombinant PRL-1 (compared to DMSO) worked out at 112%. In addition, the “% Phosphatase Activity (compared to DMSO) PRL-2” value at recombinant PRL-2 (compared to DMSO) worked out at 109%.

With `O=c1ccn([C@@H]2O[C@H](CO)[C@@H](O)[C@H]2O)c(=O)[nH]1` [Uridine], the “% Phosphatase Activity (compared to DMSO) PRL-3” value on recombinant PRL-3 (activity compared to DMSO) was 94%. Also, the “% Phosphatase Activity (compared to DMSO) PRL-1” value on recombinant PRL-1 (activity compared to DMSO) worked out at 86%. In addition, the “% Phosphatase Activity (compared to DMSO) PRL-2” value on recombinant PRL-2 (activity compared to DMSO) worked out at 97%.

`CCOC(=O)[C@H](CCc1ccccc1)N[C@@H](C)C(=O)N1CCC[C@H]1C(=O)O` [Enalapril Maleate]: the “% Phosphatase Activity (compared to DMSO) PRL-3” value at recombinant PRL-3 (compared to DMSO) came to 93%. The “% Phosphatase Activity (compared to DMSO) PRL-1” value on recombinant PRL-1 (compared to DMSO) was 83%. Besides, the “% Phosphatase Activity (compared to DMSO) PRL-2” value at recombinant PRL-2 (compared to DMSO) came to 92%.

Regarding `CCOC(=O)[C@@H](N)Cc1ccc(-c2cc(O[C@H](c3ccc(Cl)cc3-n3ccc(C)n3)C(F)(F)F)nc(N)n2)cc1.O=C(O)CNC(=O)c1ccccc1` [Telotristat Etiprate (LX 1606 Hippurate)], the “% Phosphatase Activity (compared to DMSO) PRL-3” value on recombinant PRL-3 (activity compared to DMSO) was found to be 97%. Besides, the “% Phosphatase Activity (compared to DMSO) PRL-1” value on recombinant PRL-1 (activity compared to DMSO) is 106%. At recombinant PRL-2 (activity compared to DMSO), the “% Phosphatase Activity (compared to DMSO) PRL-2” value was found to be 108%.

`Cc1ccc(N(CC2=NCCN2)c2cccc(O)c2)cc1` [Phentolamine Mesylate]: the “% Phosphatase Activity (compared to DMSO) PRL-3” value at recombinant PRL-3 (compared to DMSO) amounted to 90%. In addition, the “% Phosphatase Activity (compared to DMSO) PRL-1” value on recombinant PRL-1 (compared to DMSO) is recorded as 92%. In addition, the “% Phosphatase Activity (compared to DMSO) PRL-2” value at recombinant PRL-2 (compared to DMSO) was found to be 117%.

On to `O=c1[nH]c(=O)c2ccccc2o1` [Carsalam], for which the “% Phosphatase Activity (compared to DMSO) PRL-3” value on recombinant PRL-3 (compared to DMSO) is listed as 80%. The “% Phosphatase Activity (compared to DMSO) PRL-1” value at recombinant PRL-1 (compared to DMSO) amounted to 96%. Further, the “% Phosphatase Activity (compared to DMSO) PRL-2” value at recombinant PRL-2 (compared to DMSO) came to 95%.

As for `O=S(=O)(O)c1cc(O)ccc1O` [Ethamsylate], the “% Phosphatase Activity (compared to DMSO) PRL-3” value at recombinant PRL-3 (compared to DMSO) was determined as 71%. Besides, at recombinant PRL-1 (compared to DMSO), the “% Phosphatase Activity (compared to DMSO) PRL-1” value stood at 96%. Besides, the “% Phosphatase Activity (compared to DMSO) PRL-2” value on recombinant PRL-2 (compared to DMSO) worked out at 99%.
